{"source": "ChEMBL document CHEMBL3272069", "about": "“Inhibition of acetylcholinesterase by thiamine. A structure-function study” (J Med Chem, 1977)", "key": {"[1]": {"molecular_target": "T1, Acetylcholinesterase (Electrophorus electricus, UniProt O42275)", "T1 sequence (O42275 whole entry)": "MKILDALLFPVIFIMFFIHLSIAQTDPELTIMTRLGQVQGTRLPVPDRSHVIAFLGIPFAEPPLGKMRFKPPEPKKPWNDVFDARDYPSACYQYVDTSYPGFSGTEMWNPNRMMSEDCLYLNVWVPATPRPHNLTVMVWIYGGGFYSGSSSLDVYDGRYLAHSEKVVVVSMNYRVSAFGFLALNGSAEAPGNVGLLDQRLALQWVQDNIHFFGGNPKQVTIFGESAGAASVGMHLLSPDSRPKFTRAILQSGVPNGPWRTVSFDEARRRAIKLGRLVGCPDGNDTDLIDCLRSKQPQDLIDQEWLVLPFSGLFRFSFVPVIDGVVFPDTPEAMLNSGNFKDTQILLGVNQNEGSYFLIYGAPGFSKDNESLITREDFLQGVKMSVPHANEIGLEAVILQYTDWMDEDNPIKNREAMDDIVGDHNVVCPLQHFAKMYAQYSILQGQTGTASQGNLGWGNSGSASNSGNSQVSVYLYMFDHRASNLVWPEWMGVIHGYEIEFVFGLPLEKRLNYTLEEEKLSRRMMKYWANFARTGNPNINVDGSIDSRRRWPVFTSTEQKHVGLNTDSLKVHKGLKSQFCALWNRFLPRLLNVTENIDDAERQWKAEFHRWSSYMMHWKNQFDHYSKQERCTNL", "assay": "(§1) Noncompetitive inhibition of electric eel AChE using acetylthiocholine chloride as substrate at pH 8.25 by Michaelis-Menten plot analysis"}, "[2]": {"molecular_target": "T1, Acetylcholinesterase", "assay": "(§2) Noncompetitive inhibition of electric eel AChE using acetylthiocholine chloride as substrate at pH 7 by Michaelis-Menten plot analysis"}, "[3]": {"assay": "Dissociation constant, pKa of the compound by potentiometric titration analysis", "format": "physicochemical"}, "[4]": {"molecular_target": "T1, Acetylcholinesterase", "assay": "(§3) Competitive inhibition of electric eel AChE using acetylthiocholine chloride as substrate at pH 8.25 by Michaelis-Menten plot analysis"}, "[5]": {"molecular_target": "T1, Acetylcholinesterase", "assay": "(§4) Competitive inhibition of electric eel AChE using acetylthiocholine chloride as substrate at pH 7 by Michaelis-Menten plot analysis"}, "[6]": {"molecular_target": "Acetylcholinesterase (Electrophorus electricus) (UniProt O42275)", "sequence (O42275 24-633 limits assumed)": "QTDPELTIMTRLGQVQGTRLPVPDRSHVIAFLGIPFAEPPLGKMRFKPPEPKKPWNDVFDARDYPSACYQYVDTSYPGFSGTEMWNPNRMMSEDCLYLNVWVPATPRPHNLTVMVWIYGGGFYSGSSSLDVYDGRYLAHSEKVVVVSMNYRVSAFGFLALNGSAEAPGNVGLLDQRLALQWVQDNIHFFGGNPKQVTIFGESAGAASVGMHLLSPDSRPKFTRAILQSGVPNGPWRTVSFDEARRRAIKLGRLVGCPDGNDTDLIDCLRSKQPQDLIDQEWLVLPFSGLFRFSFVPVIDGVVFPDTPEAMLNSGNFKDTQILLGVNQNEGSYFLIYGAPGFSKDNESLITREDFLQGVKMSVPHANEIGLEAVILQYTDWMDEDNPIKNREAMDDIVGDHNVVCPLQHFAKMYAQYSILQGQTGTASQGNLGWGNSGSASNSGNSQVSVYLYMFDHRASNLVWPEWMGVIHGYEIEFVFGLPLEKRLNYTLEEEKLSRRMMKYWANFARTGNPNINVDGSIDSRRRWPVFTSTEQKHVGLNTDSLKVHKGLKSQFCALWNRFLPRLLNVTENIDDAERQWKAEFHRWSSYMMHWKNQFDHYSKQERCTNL", "assay": "as §1"}, "[7]": {"molecular_target": "Acetylcholinesterase (Electrophorus electricus) (UniProt O42275)", "assay": "as §2"}, "[8]": {"molecular_target": "Acetylcholinesterase (Electrophorus electricus) (UniProt O42275)", "assay": "as §3"}, "[9]": {"molecular_target": "Acetylcholinesterase (Electrophorus electricus) (UniProt O42275)", "assay": "as §4"}}, "note": "Calls of active or inactive are those of the source. No cut-off for these calls is given here."}
{"compound": "Nc1ccncn1", "values": [{"measurement": "Ki", "setting": "[1]", "result": 4240, "unit": "µM"}, {"measurement": "Ki", "setting": "[2]", "result": 8850, "unit": "µM"}, {"measurement": "pKa", "setting": "[3]", "result": 5.71}, {"measurement": "Ki", "setting": "[4]", "result": 9720, "unit": "µM"}, {"measurement": "Ki", "setting": "[5]", "result": 5020, "unit": "µM"}]}
{"compound": "Cc1ncc(C[n+]2csc(CCO)c2C)c(N)n1", "note": "[THIAMINE]", "values": [{"measurement": "Ki", "setting": "[1]", "result": 333, "unit": "µM"}, {"measurement": "Ki", "setting": "[2]", "result": 565, "unit": "µM"}, {"measurement": "Ki", "setting": "[4]", "result": 392, "unit": "µM"}, {"measurement": "Ki", "setting": "[5]", "result": 432, "unit": "µM"}]}
{"compound": "C[n+]1ccsc1", "values": [{"measurement": "Ki", "setting": "[1]", "result": 2.95, "unit": "µM"}, {"measurement": "Ki", "setting": "[2]", "result": 939, "unit": "µM"}, {"measurement": "Ki", "setting": "[4]", "result": 286, "unit": "µM"}, {"measurement": "Ki", "setting": "[5]", "result": 317, "unit": "µM"}]}
{"compound": "Cc1c(CCO)sc[n+]1C", "values": [{"measurement": "Ki", "setting": "[1]", "result": 18800, "unit": "µM"}, {"measurement": "Ki", "setting": "[2]", "result": 1250, "unit": "µM"}, {"measurement": "Ki", "setting": "[4]", "result": 75.6, "unit": "µM"}, {"measurement": "Ki", "setting": "[5]", "result": 148, "unit": "µM"}]}
{"compound": "Cc1ncc(CS(=O)(=O)O)c(N)n1", "values": [{"measurement": "inhibition", "setting": "[6]", "result": "inactive"}, {"measurement": "inhibition", "setting": "[7]", "result": "inactive"}, {"measurement": "inhibition", "setting": "[8]", "result": "inactive"}, {"measurement": "inhibition", "setting": "[9]", "result": "inactive"}]}
{"compound": "Cc1ncc(C[n+]2csc(CCOP(=O)(O)O)c2C)c(N)n1", "note": "[MONOPHOSPHOTHIAMINE]", "values": [{"measurement": "Ki", "setting": "[1]", "result": 5930, "unit": "µM"}, {"measurement": "Ki", "setting": "[2]", "result": 9270, "unit": "µM"}, {"measurement": "Ki", "setting": "[4]", "result": 11300, "unit": "µM"}, {"measurement": "Ki", "setting": "[5]", "result": 3010, "unit": "µM"}]}
{"compound": "Cc1cscn1", "values": [{"measurement": "Ki", "setting": "[1]", "result": 109000, "unit": "µM"}, {"measurement": "Ki", "setting": "[2]", "result": 3250, "unit": "µM"}, {"measurement": "Ki", "setting": "[4]", "result": 6070, "unit": "µM"}, {"measurement": "Ki", "setting": "[5]", "result": 5420, "unit": "µM"}]}
{"compound": "Cc1ncc(CN2CSC(CCO)C2C)c(N)n1", "note": "(stereo not drawn)", "values": [{"measurement": "Ki", "setting": "[1]", "result": 839, "unit": "µM"}, {"measurement": "Ki", "setting": "[2]", "result": 624, "unit": "µM"}, {"measurement": "pKa", "setting": "[3]", "result": 7.6}, {"measurement": "Ki", "setting": "[4]", "result": 496, "unit": "µM"}, {"measurement": "Ki", "setting": "[5]", "result": 188, "unit": "µM"}]}
{"compound": "CCc1scnc1C", "values": [{"measurement": "Ki", "setting": "[1]", "result": 51100, "unit": "µM"}, {"measurement": "Ki", "setting": "[2]", "result": 1950, "unit": "µM"}, {"measurement": "Ki", "setting": "[4]", "result": 562, "unit": "µM"}, {"measurement": "Ki", "setting": "[5]", "result": 468, "unit": "µM"}]}
{"compound": "Cc1ncsc1CCO", "values": [{"measurement": "Ki", "setting": "[1]", "result": 706, "unit": "µM"}, {"measurement": "Ki", "setting": "[2]", "result": 1370, "unit": "µM"}, {"measurement": "Ki", "setting": "[4]", "result": 8610, "unit": "µM"}, {"measurement": "Ki", "setting": "[5]", "result": 7990, "unit": "µM"}]}
{"compound": "Cc1ncc(C[n+]2csc(CCOP(=O)(O)OP(=O)(O)OP(=O)(O)O)c2C)c(N)n1", "values": [{"measurement": "Ki", "setting": "[1]", "result": 1000, "unit": "µM"}, {"measurement": "Ki", "setting": "[2]", "result": 881, "unit": "µM"}, {"measurement": "Ki", "setting": "[4]", "result": 10000, "unit": "µM"}, {"measurement": "Ki", "setting": "[5]", "result": 5200, "unit": "µM"}]}
{"compound": "Cc1ncc(CN2CSC3CCOC32C)c(N)n1", "note": "(stereo not drawn)", "values": [{"measurement": "Ki", "setting": "[1]", "result": 237, "unit": "µM"}, {"measurement": "Ki", "setting": "[4]", "result": 541, "unit": "µM"}]}
{"compound": "CCc1sc[n+](C)c1C", "values": [{"measurement": "Ki", "setting": "[1]", "result": 0.935, "unit": "µM"}, {"measurement": "Ki", "setting": "[2]", "result": 5.43, "unit": "µM"}, {"measurement": "Ki", "setting": "[4]", "result": 8.34, "unit": "µM"}, {"measurement": "Ki", "setting": "[5]", "result": 11.1, "unit": "µM"}]}
{"compound": "Cc1ncc(C)c(N)n1", "values": [{"measurement": "Ki", "setting": "[1]", "result": 551, "unit": "µM"}, {"measurement": "Ki", "setting": "[2]", "result": 260, "unit": "µM"}, {"measurement": "pKa", "setting": "[3]", "result": 6.5}, {"measurement": "Ki", "setting": "[4]", "result": 163, "unit": "µM"}, {"measurement": "Ki", "setting": "[5]", "result": 111, "unit": "µM"}]}
{"compound": "Cc1csc[n+]1C", "values": [{"measurement": "Ki", "setting": "[1]", "result": 445, "unit": "µM"}, {"measurement": "Ki", "setting": "[2]", "result": 9.8, "unit": "µM"}, {"measurement": "Ki", "setting": "[4]", "result": 54.8, "unit": "µM"}, {"measurement": "Ki", "setting": "[5]", "result": 67.9, "unit": "µM"}]}
{"compound": "Cc1ncc(C[n+]2csc(CCO[P@](=O)(O)OP(=O)(O)O)c2C)c(N)n1", "values": [{"measurement": "Ki", "setting": "[1]", "result": 58400, "unit": "µM"}, {"measurement": "Ki", "setting": "[2]", "result": 6740, "unit": "µM"}, {"measurement": "Ki", "setting": "[4]", "result": 14200, "unit": "µM"}, {"measurement": "Ki", "setting": "[5]", "result": 14600, "unit": "µM"}]}
{"compound": "c1cscn1", "values": [{"measurement": "inhibition", "setting": "[6]", "result": "inactive"}, {"measurement": "inhibition", "setting": "[7]", "result": "inactive"}, {"measurement": "inhibition", "setting": "[8]", "result": "inactive"}, {"measurement": "inhibition", "setting": "[9]", "result": "inactive"}]}
{"compound": "c1cncnc1", "values": [{"measurement": "inhibition", "setting": "[6]", "result": "inactive"}, {"measurement": "inhibition", "setting": "[7]", "result": "inactive"}, {"measurement": "inhibition", "setting": "[8]", "result": "inactive"}, {"measurement": "inhibition", "setting": "[9]", "result": "inactive"}]}
